{"source": "paper PMC10745054", "about": "“A Synthetic Model of the Mucosa for Oral Penetration Studies” (Membranes, 2023)", "key": {"[1]": {"assay": "In vitro permeation through Nuclepore synthetic membrane (intact or modified by formulation), Franz diffusion cell", "format": "in vitro ADME", "conditions": "for percent permeation: at 4 h", "source_text": "(§1) Three types of membranes were used in this study, a synthetic membrane and two biological membranes, porcine skin and porcine sublingual oral mucosa. […] The biological membranes were a porcine sublingual mucosa and porcine skin. The porcine tongues with sublingual mucosa were supplied by the Faculty of Pharmacy of the University of Barcelona from the Hospital de Bellvitge campus according to the protocols of the ethics committee and with the supervision of the above institution. The mucous membrane was dermatomed to a thickness of 500–700 µm (Dermatome GA630, Aesculap, Tuttlingen, Germany), and portions of the sublingual oral mucosa were obtained to fit in the Franz diffusion cells. In addition, to determine the specific thickness, each mucosal portion was measured with a digital micrometer (MAHR, Göttingen, Germany). Porcine skin was obtained from the unboiled back of a Landrace large white pig (3 months old, weight around 40 kg) (supplied by the Department of Cardiology of the Clinic Hospital of Barcelona). Animal handling was approved by the Institutional Review Board and Ethics Committee of Institut d’Investigacions Biomèdiques August Pi i Sunyer (IDIBAPS), and the management of the animals conformed to the Guide for the Care and Use of Laboratory Animals. Porcine skin was dermatomed to a thickness of 500 ± 50 µm (Dermatome GA630, Aesculap, Germany) and stored at −20 °C until further use.\nThe Nuclepore synthetic membrane, sublingual mucosa, and porcine skin dermatomed to a thickness of 500–700 µm were used to evaluate the permeation of drug/biocidal compounds. These studies were performed using a Franz vertical diffusion cell (Lara Spiral, Couternon, France) as described before. […]\n(§2) Next, a pseudoinfinite dose (300 µL) of the drug or biocidal solution was applied to each Franz cell. […] The permeation of three biocides, Fungitrol (FUN), propiconazole (PRO), and permethrin (PER), was also determined. […]\n(§3) The release of each compound was evaluated by determining the cumulative amount permeated (Qn, μg/cm^2), which corresponds to the cumulative amount of the substance quantified in the receiving liquid per unit of surface area of the applied sample [31].\n(§4) The experimental Qn and % compound release data were used to construct graphs showing permeation over time. […] The model was determined with the nonlinear regression software STATGRAPHICS plus 5 (Statgraphics Technologies, Inc., The Plains, VA, USA), and the best equation was selected based on the highest correlation coefficient corrected for the number of degrees of freedom (R^2 DoFs).\nParameters were obtained from the graph. Fluxes (J, μg/cm^2/h) from the tested compounds were calculated from the slope of the linear portion of the cumulative amounts permeated through the membrane per unit surface area versus time plot. […]"}, "[2]": {"assay": "In vitro permeation through porcine skin, Franz diffusion cell", "format": "in vitro ADME", "conditions": "after 4 h", "source_text": "Three types of membranes were used in this study, a synthetic membrane and two biological membranes, porcine skin and porcine sublingual oral mucosa. […] The biological membranes were a porcine sublingual mucosa and porcine skin. The porcine tongues with sublingual mucosa were supplied by the Faculty of Pharmacy of the University of Barcelona from the Hospital de Bellvitge campus according to the protocols of the ethics committee and with the supervision of the above institution. The mucous membrane was dermatomed to a thickness of 500–700 µm (Dermatome GA630, Aesculap, Tuttlingen, Germany), and portions of the sublingual oral mucosa were obtained to fit in the Franz diffusion cells. In addition, to determine the specific thickness, each mucosal portion was measured with a digital micrometer (MAHR, Göttingen, Germany). […]\nas §2\nThe release of each compound was evaluated by determining the cumulative amount permeated (Qn, μg/cm^2), which corresponds to the cumulative amount of the substance quantified in the receiving liquid per unit of surface area of the applied sample [31]. […]"}, "[3]": {"assay": "In vitro permeation through porcine sublingual mucosa (intact or modified by formulation), Franz diffusion cell", "format": "in vitro ADME", "source_text": "as §1\nThe Nuclepore synthetic membrane, sublingual mucosa, and porcine skin dermatomed to a thickness of 500–700 µm were used to evaluate the permeation of drug/biocidal compounds. These studies were performed using a Franz vertical diffusion cell (Lara Spiral, Couternon, France) as described before. The receiving fluid (RF) used was PBS:EtOH (1:1) for drug permeation and EtOH:H2O (75:25) for biocide permeation, assuring sink conditions of the compounds.\nNext, a pseudoinfinite dose (300 µL) of the drug or biocidal solution was applied to each Franz cell. Solutions were applied in triplicate to determine the kinetic parameters. […] The permeation of three biocides, Fungitrol (FUN), propiconazole (PRO), and permethrin (PER), was also determined. The biocides were dissolved in ethanol, each at a concentration of 1%.\nSamples (0.2 mL) were collected at different times (0 h, 0.5 h, 1 h, 2 h, and 4 h), and the same volume of receptor fluid was immediately added back for replacement.\nas §3, §4\nParameters were obtained from the graph. Fluxes (J, μg/cm^2/h) from the tested compounds were calculated from the slope of the linear portion of the cumulative amounts permeated through the membrane per unit surface area versus time plot. The permeability coefficients (Kp, cm/h) were obtained by dividing the J by the initial drug/biocide concentration. And Cmax represented the maxima concentration permeated for each active substance.\nAs in the previous TMWL assay, dermatomed porcine sublingual mucosa and split skin at a thickness of 500–700 µm as well as the synthetic Nuclepore membrane were used in this study."}, "[4]": {"conditions": "cited from earlier work"}}, "data": [{"compound": "Cn1c(=O)c2c(ncn2C)n(C)c1=O", "note": "[Caffeine]", "values": [{"measurement": "maximum permeation", "setting": "[1]; Nuclepore membrane (NP), between 0.5 and 4 h", "result": 50, "unit": "%"}, {"measurement": "percent permeation", "setting": "[1]; Nuclepore modified with formulation 6 (NP F6)", "result": 65, "unit": "%"}, {"measurement": "percent permeation", "setting": "[1]; Nuclepore modified with hydrophobic formulation 3 (NP F3)", "result": 40, "unit": "%"}, {"measurement": "percent permeation", "setting": "[1]; Nuclepore modified with liposomal formulation 16 (printed NP F6)", "result": 40, "unit": "%"}, {"measurement": "percent permeation", "setting": "[2]", "result": "approximately 10%"}, {"measurement": "Permeability Coef. Kp", "setting": "[3]; MUCOSA F3: mucosa modified with formulation 3", "result": "8.3 ± 2.5 10^−3 cm/h"}, {"measurement": "Permeability Coef. Kp", "setting": "[3]; MUCOSA F6: mucosa modified with formulation 6", "result": "49.3 ± 0.1 10^−3 cm/h"}, {"measurement": "Permeability Coef. Kp", "setting": "[3]; MUCOSA F16: mucosa modified with formulation 16", "result": "6.4 ± 0.9 10^−3 cm/h"}, {"measurement": "percent permeation", "setting": "[3]; mucosa modified with formulation 6 (MUC F6), at 4 h", "result": 60, "unit": "%"}, {"measurement": "percent permeation", "setting": "[3]; mucosa modified with hydrophobic formulation 3 (MUC F3), at 4 h", "result": "approximately 10%"}, {"measurement": "percent permeation", "setting": "[3]; mucosa modified with liposomal formulation 16 (printed MUC F6), at 4 h", "result": "approximately 10%"}, {"measurement": "percent permeation (release)", "setting": "[3]; sublingual mucosa (MUC), at 4 h", "result": 40, "unit": "%"}]}, {"compound": "C[C@@H]1C[C@H]2[C@@H]3CCC4=CC(=O)C=C[C@]4(C)[C@@]3(F)[C@@H](O)C[C@]2(C)[C@@]1(O)C(=O)CO", "note": "[Dexametasone, dexamethasone]", "values": [{"measurement": "Log Ko/w (pH 7.4)", "setting": "[4]", "result": "1.8 [40]"}]}, {"compound": "O=C(c1ccccc1)c1ccc2n1CCC2C(=O)O", "note": "(centres unmarked) [Ketorolac tromethamine, ketorolac tromethamine]", "values": [{"measurement": "Log Ko/w (pH 7.4)", "setting": "[4]", "result": "2.3 [39]"}]}, {"compound": "CC1(C)C(C=C(Cl)Cl)C1C(=O)OCc1cccc(Oc2ccccc2)c1", "note": "(centres unmarked) [Permethrin, permethrin]", "values": [{"measurement": "Log Ko/w (pH 7.4)", "setting": "[4]", "result": "6.5 [44]"}]}, {"compound": "CCCC1COC(Cn2cncn2)(c2ccc(Cl)cc2Cl)O1", "note": "(centres unmarked) [Propiconazole, propiconazole]", "values": [{"measurement": "Log Ko/w (pH 7.4)", "setting": "[4]", "result": "3.5 [43]"}]}, {"compound": "Fungitrol", "values": [{"measurement": "Log Ko/w (pH 7.4)", "setting": "[4]", "result": "2.4 [42]"}]}]}
